35 compounds from patent US20250353841A1 (BIOGEN MA INC., priority 2022, published 2025) can be followed below.

SMILES strings stand for the structures. Where only a bound is given, the exact number is not on record here.

The IC50 is the concentration needed to halve the response being measured.

The test system of the test is mutant Huntington (HTT) protein. Briefly: HTT Mutant HTRF iPSC assay (mHTT protein lowering). It is filed as cell-based. Particulars: human iPSC derived from a HTT patient with a poly-Q49 mutation.
`Cc1cn2nc(-c3cc(F)c4nc(N5CCC6(CCN(C)CC6)C5)oc4c3)cc(C(F)(F)F)c2n1` [Compound 520, 4-fluoro-6-(2-methyl-8-(trifluoromethyl)imidazo [1,2-b]pyridazin-6-yl)-2-(8-methyl-2,8-diazaspiro[4.5]decan-2-yl)benzo[d]oxazole]: the IC50 was less than 100 nM. The value for `Cc1cn2nc(-c3cc(F)c4nc([C@H]5[C@@H]6CNC[C@@H]65)oc4c3)cc(C)c2n1` [Compound 455, 2-((1R,5S,6r)-3-azabicyclo[3.1.0]hexan-6-yl)-6-(2,8-dimethylimidazo[1,2-b]pyridazin-6-yl)-4-fluorobenzo[d]oxazole] was 100 to 1000 nM; that for `CCN1CCC(Nc2nc3c(F)cc(-c4cc(C)c5nc(C)cn5n4)cc3o2)CC1C` (centres unmarked) [Compound 471, 6-(2,8-dimethylimidazo[1,2-b]pyridazin-6-yl)-N-(1-ethyl-2-methylpiperidin-4-yl)-4-fluorobenzo[d]oxazol-2-amine] was less than 100 nM; that for `Cc1cn2nc(-c3cc(F)c4nc(C5CCC6(CCN(C)CC6)C5)cn4c3)cc(C)c2n1` (centres unmarked) [Compound 229, 2-(6-(2,8-dimethylimidazo[1,2-b]pyridazin-6-yl)-8-fluoroimidazo[1,2-a]pyridin-2-yl)-8-methyl-8-azaspiro[4.5]decane] was less than 100 nM. `CCc1cc(-c2cc(F)c3nc(C4CCNCC4)cn3c2)cn2cc(C)nc12` [Compound 103, 8-ethyl-8′-fluoro-2-methyl-2′-(piperidin-4-yl)-6,6′-biimidazo[1,2-a]pyridine] displayed an IC50 of 100 to 1000 nM. The figure for `Cc1cn2nc(-c3cc(F)c4nn(C5CCNCC5)nc4c3)ccc2n1` [Compound 384, 4-fluoro-6-(2-methylimidazo[1,2-b]pyridazin-6-yl)-2-(piperidin-4-yl)-2H-benzo[d][1,2,3]triazole] is 100 to 1000 nM. The figure for `CCc1nc(C)cn2cc(-c3cc(F)c4nc(C5CCNCC5)cn4c3)cc12` [Compound 30, 6-(1-ethyl-3-methylpyrrolo[1,2-a]pyrazin-7-yl)-8-fluoro-2-(piperidin-4-yl)imidazo[1,2-a]pyridine] is less than 100 nM. The figure for `Cc1cn2nc(-c3cc(F)c4nc([C@@H]5CCCNC5)cn4c3)cc(C)c2n1` (single isomer, unassigned) [Compound 118] is less than 100 nM.

In the case of `Cc1cn2nc(-c3cc(F)c4[nH]c(C5CCNC(C)(C)C5)nc4c3)cc(C)c2n1` (centres unmarked) [Compound 419], the IC50 lay within 100 to 1000 nM. The value for `Cc1cn2nc(-c3cc(F)c4nc(N5CCC6(CN(C)C6)C5)oc4c3)cc(C)c2n1` [Compound 472, 6-(2,8-dimethylimidazo[1,2-b]pyridazin-6-yl)-4-fluoro-2-(2-methyl-2,6-diazaspiro[3.4]octan-6-yl)benzo[d]oxazole] was 100 to 1000 nM; that for `O=c1[nH]ncc2ccc(-c3cc(F)c4nc(C5CCNCC5)cn4c3)cc12` [Compound 58, 7-(8-fluoro-2-(piperidin-4-yl)imidazo[1,2-a]pyridin-6-yl)phthalazin-1(2H)-one] was 1000 to 9000 nM.

`Cc1cn2nc(-c3cc(F)c4nc(NC(=O)C5CCNC6(CC6)C5)nn4c3)cc(C)c2n1` (racemic) [Compound 330, N-(6-(2,8-dimethylimidazo[1,2-b]pyridazin-6-yl)-8-fluoro-[1,2,4]triazolo[1,5-a]pyridin-2-yl)-4-azaspiro[2.5]octane-7-carboxamide] came in with an IC50 of 100 to 1000 nM. The value for `Cc1cc(-c2cc(F)c3nc(C4CCNCC4)nn3c2)cc2cn(C)nc12` [Compound 432, 6-(2,7-dimethyl-2H-indazol-5-yl)-8-fluoro-2-(piperidin-4-yl)-[1,2,4]triazolo[1,5-a]pyridine] was 100 to 1000 nM; that for `Cc1cn2nc(-c3cc(F)c4nc(NC(=O)C5(F)CNC5)cn4c3)cc(C)c2n1` [Compound 270, N-(6-(2,8-dimethylimidazo[1,2-b]pyridazin-6-yl)-8-fluoroimidazo[1,2-a]pyridin-2-yl)-3-fluoroazetidine-3-carboxamide] was less than 100 nM; that for `Cc1cn2nc(-c3cc(F)c4nc(N5CCC(N6CCCC6)C5)oc4c3)cc(C)c2n1` (centres unmarked) [Compound 476, 2-([1,3′-bipyrrolidin]-1′-yl)-6-(2,8-dimethylimidazo[1,2-b]pyridazin-6-yl)-4-fluorobenzo[d]oxazole] was 100 to 1000 nM.

As to `COc1cc(-c2cc(C)c3nn(C)cc3c2)cc2cn(C3CCNCC3)nc12` [Compound 544, 7-methoxy-2′,7′-dimethyl-2-(piperidin-4-yl)-2H,2′H-5,5′-biindazole], the half-inhibitory concentration (IC50) was 1000 to 9000 nM. As to `Cc1cn2nc(-c3cc(F)c4nc(NC(=O)C5CCCC(N(C)C)C5)cn4c3)cc(C)c2n1` (racemic) [Compound 247, 3-(dimethylamino)-N-(6-(2,8-dimethylimidazo[1,2-b]pyridazin-6-yl)-8-fluoroimidazo[1,2-a]pyridin-2-yl)cyclohexane-1-carboxamide], the IC50 was 100 to 1000 nM. The figure for `COCCN1CCC(c2cn3cc(-c4cc5c(C)nc(C)cn5n4)cc(F)c3n2)CC1` [Compound 221, 2-(8-fluoro-2-(1-(2-methoxyethyl)piperidin-4-yl)imidazo[1,2-a]pyridin-6-yl)-4,6-dimethylpyrazolo[1,5-a]pyrazine] is less than 100 nM; for `Cc1cn2nc(-c3cc(F)c4nc(NC(=O)[C@H]5[C@@H]6CN(C)C[C@@H]65)cn4c3)cc(C)c2n1` [Compound 262, (1R,5S,6r)-N-(6-(2,8-dimethylimidazo[1,2-b]pyridazin-6-yl)-8-fluoroimidazo[1,2-a]pyridin-2-yl)-3-methyl-3-azabicyclo[3.1.0]hexane-6-carboxamide] it is less than 100 nM; for `Cc1cn2nc(-c3cc(F)c4nc(N(C)C5CCN(C(C)C)CC5)oc4c3)cc(C)c2n1` [Compound 469, 6-(2,8-dimethylimidazo[1,2-b]pyridazin-6-yl)-4-fluoro-N-(1-isopropylpiperidin-4-yl)-N-methylbenzo[d]oxazol-2-amine] it is 100 to 1000 nM. `Cc1cn2nc(-c3cc(F)c4nc(C5CCC6(CC5)CC(N)C6)[nH]c4c3)cc(C)c2n1` (centres unmarked) [Compound 559, 7-(6-(2,8-dimethylimidazo[1,2-b]pyridazin-6-yl)-4-fluoro-1H-benzo[d]imidazol-2-yl)spiro[3.5]nonan-2-amine] gave an IC50 of 100 to 1000 nM.

On to `Cc1cn2nc(-c3cc(F)c4nc(NC(=O)C5CN(C)C5(C)C)cn4c3)cc(C)c2n1` (racemic) [Compound 259, N-(6-(2,8-dimethylimidazo[1,2-b]pyridazin-6-yl)-8-fluoroimidazo[1,2-a]pyridin-2-yl)-1,2,2-trimethylazetidine-3-carboxamide], for which the half-maximal inhibitory concentration (IC50) lay in the range of 100 to 1000 nM. For `Cc1cn2nc(-c3cc(F)c4nc(NC(=O)[C@H]5[C@@H]6CNC[C@@H]65)cn4c3)cc(C)c2n1` [Compound 246, (1R,5S,6r)-N-(6-(2,8-dimethylimidazo[1,2-b]pyridazin-6-yl)-8-fluoroimidazo[1,2-a]pyridin-2-yl)-3-azabicyclo[3.1.0]hexane-6-carboxamide], the IC50 was less than 100 nM. The figure for `Cc1cn2nc(-c3cc(F)c4nc(NC(=O)CC5CCCCN5)cn4c3)cc(C)c2n1` (centres unmarked) [Compound 274, N-(6-(2,8-dimethylimidazo[1,2-b]pyridazin-6-yl)-8-fluoroimidazo[1,2-a]pyridin-2-yl)-2-(piperidin-2-yl)acetamide] is less than 100 nM. For `Cc1cn2nc(-c3cc(F)c4cn(C5CCNCC5)nc4c3)cc(C)c2n1` [Compound 135, 6-(4-fluoro-2-(piperidin-4-yl)-2H-indazol-6-yl)-2,8-dimethylimidazo[1,2-b]pyridazine], the IC50 is 100 to 1000 nM. The figure for `Cc1cn2nc(-c3cc(F)c4nn(C5CCNCC5)cc4c3)cc(C)c2n1` [Compound 355, 6-(7-fluoro-2-(piperidin-4-yl)-2H-indazol-5-yl)-2,8-dimethylimidazo[1,2-b]pyridazine] is less than 100 nM; for `Cn1nc2ccc(-c3cc(F)c4[nH]c(C5CCNCC5)nc4c3)cc2n1` [Compound 146, 5-(7-fluoro-2-(piperidin-4-yl)-1H-benzo[d]imidazol-5-yl)-2-methyl-2H-benzo[d][1,2,3]triazole] it is 1000 to 9000 nM; for `Cc1cn2nc(-c3cc(F)c4nc(CC5CCN(C)CC5)oc4c3)cc(C)c2n1` [Compound 459, 6-(2,8-dimethylimidazo[1,2-b]pyridazin-6-yl)-4-fluoro-2-((1-methylpiperidin-4-yl)methyl)benzo[d] oxazole] it is less than 100 nM. The figure for `Cc1cn2cc(-c3cc(F)c4nc(CC5CNC5)cn4c3)cc(F)c2n1` [Compound 21, 2-(azetidin-3-ylmethyl)-8,8′-difluoro-2′-methyl-6,6′-biimidazo[1,2-a]pyridine] is 1000 to 9000 nM. The value for `Cc1cn2cc(-c3cc(F)c4nc(C5CCNCC5)nn4c3)cc2c(C)n1` [Compound 431, 6-(1,3-dimethylpyrrolo[1,2-a]pyrazin-7-yl)-8-fluoro-2-(piperidin-4-yl)-[1,2,4]triazolo[1,5-a]pyridine] was 100 to 1000 nM; that for `CNCCc1cn2cc(-c3cc(F)c4nc(C)cn4c3)cc(F)c2n1` [Compound 24, 2-(8,8′-difluoro-2′-methyl-[6,6′-biimidazo[1,2-a]pyridin]-2-yl)-N-methylethan-1-amine] was 1000 to 9000 nM; that for `Cc1cn2nc(-c3cc(F)c4nc(C5CC6CCC(C5)N6)cn4c3)cc(C)c2n1` (centres unmarked) [Compound 206] was less than 100 nM. `Cc1cn2nc(-c3cn4cc(C5CCCNC5)cc(F)c4n3)cc(C)c2n1` (centres unmarked) [Compound 134, 6-(8-fluoro-6-(piperidin-3-yl)imidazo[1,2-a]pyridin-2-yl)-2,8-dimethylimidazo[1,2-b]pyridazine] returned an IC50 of 1000 to 9000 nM.

Compound `Cc1nc2ccc(-c3cc(F)c4nc([C@H]5[C@@H]6CN(C)C[C@@H]65)cn4c3)nn2n1` [Compound 219, 6-(8-fluoro-2-((1R,5S,6r)-3-methyl-3-azabicyclo[3.1.0]hexan-6-yl)imidazo[1,2-a]pyridin-6-yl)-2-methyl-[1,2,4]triazolo[1,5-b]pyridazine] registered an IC50 of 100 to 1000 nM. The value for `CN1CCC(c2cn3cc(-c4ccc5nn(C)cc5c4)cc(F)c3n2)CC1` [Compound 28, 5-(8-fluoro-2-(1-methylpiperidin-4-yl)imidazo[1,2-a]pyridin-6-yl)-2-methyl-2H-indazole] was 1000 to 9000 nM.
